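A five-concentration, 48-hour dose response in 96-well plates underlies each endpoint, interpolated linearly between surrounding concentrations. Abbreviation: GI50, concentration required for 50% inhibition of growth. Definition used: TGI = concentration required for complete inhibition of growth.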
Legend:
Experiment in all cases: DTP human tumour cell line panel, 48 h
HOP-62 NSCLC = system: HOP-62 NSCLC
TK-10 renal = system: TK-10 renal
SNB-75 CNS = system: SNB-75 CNS
NCI-H226 lung = system: NCI-H226 lung
SF-268 CNS = system: SF-268 CNS
SW-620 colon = system: SW-620 colon
MDA-N = system: MDA-N
786-0 renal = system: 786-0 renal
HCC-2998 colon = system: HCC-2998 colon
DLD-1 colon = system: DLD-1 colon
HOP-18 NSCLC = system: HOP-18 NSCLC
KM20L2 colon = system: KM20L2 colon
M19-MEL melanoma = system: M19-MEL melanoma

SMILES | TGI (HOP-62 NSCLC) | TGI (TK-10 renal) | TGI (SNB-75 CNS) | TGI (NCI-H226 lung) | TGI (SF-268 CNS) | TGI (SW-620 colon) | TGI (MDA-N) | TGI (786-0 renal) | TGI (HCC-2998 colon) | TGI (DLD-1 colon) | TGI (HOP-18 NSCLC) | TGI (KM20L2 colon) | TGI (M19-MEL melanoma) | GI50 (TK-10 renal) | GI50 (NCI-H226 lung) | GI50 (SF-268 CNS) | GI50 (SW-620 colon) | GI50 (HOP-62 NSCLC) | GI50 (SNB-75 CNS) | GI50 (HCC-2998 colon)
Cc1ccc(S(=O)(=O)Nc2cc(=O)[nH]c3c2CCC3)cc1 | > 100 µM | > 100 µM | > 100 µM | > 100 µM | > 100 µM | > 100 µM | > 100 µM | > 100 µM | > 100 µM |  |  |  |  |  |  |  |  |  |  | 
Cc1ccc([N+](=O)[O-])cc1S(=O)(=O)Nc1ccc(C2=NN(C(=O)c3ccccc3)C(c3ccccc3O)C2)cc1 (stereo not drawn) | 85.7 µM | 28.5 µM | 41.4 µM | 58.6 µM | 45.9 µM | > 100 µM | 88.1 µM | 27.9 µM |  |  |  |  |  |  |  |  |  |  |  | 
CN(CCc1ccccn1)c1ccc2c(c1)Cc1ccccc1-2 | 44.6 µM | > 100 µM | 45.2 µM | 40.5 µM | > 100 µM | > 100 µM |  | > 100 µM | > 100 µM |  |  |  |  |  |  |  |  |  |  | 
C=C(CN(C)C)C(=O)c1ccccc1Cl | > 100 µM | 39.2 µM | > 80.7 µM | > 100 µM | 42.7 µM | 27.7 µM |  | 34.3 µM | 61 µM | 36.3 µM | 33.7 µM | > 60.4 µM | 33.4 µM |  |  |  |  |  |  | 
CCCCSCCC(N)P(=O)(O)O (stereo not drawn) | > 100 µM | > 100 µM | > 100 µM | > 100 µM |  | > 100 µM | > 100 µM |  | > 100 µM |  |  |  |  |  |  |  |  |  |  | 
Oc1ccc(Cl)cc1C1=Nn2c(COc3ccc4c(c3)CCCC4)nnc2SC1 | 27.5 µM | 20.1 µM |  |  | 35 µM | 33 µM | 30.2 µM |  |  |  |  |  |  |  |  |  |  |  |  | 
O=C1CNc2cc(N3CCCCC3)ccc2N1 | > 100 µM | > 100 µM | > 100 µM | 37.3 µM |  | > 100 µM | > 100 µM |  | > 100 µM |  |  |  |  |  |  |  |  |  |  | 
CN(CCN1C(=O)c2cccc3cccc(c23)C1=O)CCN1C(=O)c2cccc3cccc(c23)C1=O | 26.4 µM | 27.7 µM | 49.9 µM | 75.2 µM | > 100 µM |  |  | 27.5 µM |  |  |  |  |  |  |  |  |  |  |  | 
COc1cc(/C=C2\CC3C4CC[C@H]5C[C@@H](O)CC[C@]5(C)C4CC[C@]3(C)\C2=N\O)cc(OC)c1OC (stereo partly drawn) | 38.9 µM | > 100 µM | > 100 µM | 45.1 µM | > 100 µM | > 100 µM | 41.9 µM | 34.8 µM | 38.6 µM |  |  |  |  |  |  |  |  |  |  | 
O=S(C(c1ccccc1)=P(c1ccccc1)(c1ccccc1)c1ccccc1)c1ccc(Cl)cc1 (stereo not drawn) | 64.6 µM | > 100 µM | > 100 µM | > 100 µM | 87.9 µM | > 100 µM | 78.6 µM | > 100 µM | > 100 µM |  |  |  |  |  |  |  |  |  |  | 
CS(=O)(=O)Nc1ccc(NCc2cnc3ccc4[nH]cccc4c23)cc1 | > 100 µM | 94.8 µM | 61.3 µM | > 100 µM | 61.8 µM | > 100 µM | 37.5 µM | > 100 µM |  |  |  |  |  |  |  |  |  |  |  | 
O=C1/C(=C/c2ccc([N+](=O)[O-])cc2)Sc2scc(-c3cccc([N+](=O)[O-])c3)[n+]21 | 33.9 µM | 17.8 µM | 25.6 µM | 29.9 µM | 7.75 µM | 3.35 µM | 15.7 µM | 4.96 µM | 19.1 µM |  |  |  |  |  |  |  |  |  |  | 
C#C[C@]1(O)[C@@H](CO)O[C@@H](n2ccc(=O)[nH]c2=O)[C@@H]1O | 1.05 µM | > 100 µM |  | 2.66 µM |  | > 100 µM | 1.71 µM |  |  |  |  |  |  |  |  |  |  |  |  | 
NC(N)=N/N=C/c1c(-c2cccs2)nc2n1CCS2 |  | 46.5 µM |  | 31.8 µM | 53.3 µM | 41.7 µM |  |  |  |  |  |  |  | 18.3 µM | 15.9 µM | 25.5 µM | 17.9 µM |  |  | 
CCOC(=O)c1cccc(N=Nc2ncc(/C=C/C(=O)OC)[nH]2)c1 | 51.3 µM | > 100 µM | 92.4 µM | > 100 µM | > 100 µM | > 100 µM | > 100 µM | > 100 µM | 43.8 µM |  |  |  |  |  |  |  |  |  |  | 
COc1ccc(-n2nc(C(=O)c3ccccc3)c3nn4c(=O)cc(-c5ccccc5)nc4nc32)cc1 | > 100 µM | > 100 µM | > 100 µM | > 100 µM | > 100 µM | > 100 µM |  |  | 76.7 µM |  |  |  |  | 40.3 µM | 98.1 µM | 39.1 µM | 44.3 µM | 44.1 µM | 37.9 µM | 47.3 µM
